Here are results for one compound from US12642781B2, “Adenomyosis associated infertility and hdac inhibitors” (NADEZHDA REPRODUCTIVE SCIENCE OOD, priority 2020, dated 2026).

SMILES strings stand for the structures.

Data set [1] can be described thus: Safety and tolerability of the treatment regimen (safety lab blood tests, adverse events). Format: in vivo, women. The method, then: (§1) Intralesional application must start with the lesions located closest to the cavum uteri, in the so-called junctional zone, because these have the strongest influence on fertility. The procedure is performed under short-term intravenous anesthesia to ensure patient comfort and immobility during application; patients report no pain after anesthesia wear off.
The safety lab panel included liver function tests (AST, ALT, LDH), as well as complete blood count.

In a further data set the test system is adenomyosis lesions. The data set is described as follows: Clinical treatment of women with adenomyosis: lesion assessment by 2D/3D ultrasound, MRI and colour Doppler. The class given is in vivo. The method, then: A 100 mg/ml solution of sodium valproate for injection or infusion was prepared.
This solution is drawn in 5 ml Luer lock syringe and administrated in the lesion(s) through special needle. We have used—OPU needle 18G, with echo tip and length at least 15 cm. The solution was administered in the ultrasound-guided manner in all visible lesions. The access was through the vagina.
as §1
The first oral dose must be taken between 9 h and 16 h after the end of intralesion application in order to achieve a steady state in patient plasma.
Sodium valproate 500 mg prolonged-release tablets were used.
To eliminate operator bias, all TVUS scans of the same patient at baseline and after start of treatment were performed by the same specialist on the same ultrasound machine.
There were tested 37 women with adenomyosis and a history of infertility and/or abortions.

Data set [2] concerns adenomyosis associated infertility. The data set is described as follows: Pregnancy outcome of IVF after the treatment regimen. Format: in vivo, women. The method, then:
Sodium valproate 500 mg prolonged-release tablets were used. […] There were tested 37 women with adenomyosis and a history of infertility and/or abortions. […] One month after End of Treatment, a new IVF cycle is ready to be started, and pregnancies are followed up to full term birth. […] Pregnancy rate was measured and is described below in Table 6: […]

Setting [3] is: after the first two months of oral VPA following intralesional VPA administration.

`CCCC(CCC)C(=O)O` [VPA, valproic acid]: in data set [1] (1000 mg VPA daily oral), the “patients who reported dizziness and stopped oral VPA intake” value stood at 2. Also, the “pain after intralesional application” value in data set [1] (after anesthesia wear off) was “no pain”. For the same compound, in data set [1] (before start and every 30 days till end of treatment), the “safety lab results (AST, ALT, LDH, complete blood count)” value is “in normal range”. In addition, in the data set on adenomyosis lesions (37 women with adenomyosis and a history of infertility and/or abortions), the “response of lesions to treatment” value is “Some of the lesions disappeared completely and some of them were significantly reduced in size”. In addition, in the data set with adenomyosis lesions (setting [3]), the “central vascularity of lesions (Colour Doppler)” value was “absent” and the “reduction in size of lesion dimensions (ultrasound)” value is “up to 2 fold”. In addition, the progression of adenomyosis result in the data set on adenomyosis lesions (monthly follow-up for three months after end of treatment) is reported as “no progression of adenomyosis was observed”. Also, the “Observed Prop. (Binomial Test, Pregnancy CODE 1.00)” value in data set [2] (Group 2, N 13 of 37, Test Prop. .8, Exact Sig. (1-tailed) .023) is recorded as “.4”. Also, in data set [2] (in vivo), the “pregnancy terminations, or uterine obstetric complications during C-Section” value was “No pregnancy terminations, or uterine obstetric complications during C-Section”. In data set [2] (new IVF cycle one month after End of Treatment, results up to date), the pregnancy rate is recorded as 85%. In data set [2] (results up to date), the healthy full-term babies was 10.
